The source of these data is PubChem BioAssay AID2840 (Southern Research Specialized Biocontainment Screening …, 2010).

Test [1] has as its system Salmonella typhi GFP reporter counter-screen, fluorescence, 4 h. Put plainly: GFP reporter counter screen, PhoP regulon inhibitors, Salmonella typhi, fluorescence inhibition (AID 2840).
Assay in test [2]: as above
To be noted: Salmonella typhi GFP reporter counter-screen, fluorescence, 4 h; at 150 µM (top of the series).

Activity calls are given as the source filed them. No rule for the calls is given here.

Consider `COc1c(N2CCN(C(=S)NCc3ccccc3)C(C)C2)c(F)cc2c(=O)c(C(=O)O)cn(C3CC3)c12` (stereo unspecified), for which the IC50 in test [1] is less than 150 nM.
As for `S=C(NCc1ccc(Cl)cc1)Nc1ccc(Cl)cc1`, the inhibition in test [2] is 0.06% (inactive).
Still for that read-out and setting: then `Cc1cccc(NC(=S)NCc2ccc(Cl)cc2)c1`, with 3.06% (inactive).
With `COc1ccc(CNC(=S)Nc2ccncc2)cc1`, the inhibition in test [2] was 15.2% (inactive).
`COc1ccccc1NC(=O)N1CCCN(Cc2ccccc2F)C1`: in test [2], the inhibition is 21% (inactive).
Take `O=C1C2=C(Nc3ccccc3SC2c2cccc(Cl)c2)c2ccccc21` (stereo unspecified): the inhibition in test [2] was 14.9% (inactive).
Take `O=C(Nc1ccccc1Cl)N1CCCN(Cc2ccccc2F)C1`: the inhibition in test [2] was 0.77% (inactive).
Take `S=C(NCc1ccc(Cl)cc1)Nc1ccc(Br)cc1`: the inhibition in test [2] is 1.55% (inactive).
Consider `Cc1ccc(Nc2cc(C)c3c(O)cccc3n2)cc1C`, for which the IC50 in test [1] is less than 150 nM.
Consider `CCn1cc(C(=O)O)c(=O)c2cc(F)c(N3CCN(C(=S)NC)CC3)cc21`, for which, in test [2], the inhibition was -11.9% (inactive).
In the case of `O=C1C2=C(Nc3ccccc3SC2c2ccccc2Br)c2ccccc21` (stereo unspecified), the inhibition in test [2] is 9.22% (inactive).
Consider `O=C1C2=C(Nc3ccccc3SC2c2ccsc2)c2ccccc21` (stereo unspecified), for which the inhibition in test [2] is 13.1% (inactive).
Consider `O=C(Nc1ccc(Cl)cc1)N1CCCN(Cc2ccccc2F)C1`, for which the IC50 in test [1] is less than 150 nM.
Regarding `COc1cccc(C2Sc3ccccc3NC3=C2C(=O)c2ccccc23)c1` (stereo unspecified), the inhibition in test [2] is 14.1% (inactive).
Regarding `O=C1c2ccccc2C2=Nc3ccccc3SC(c3ccccc3F)C12` (stereo unspecified), the IC50 in test [1] was less than 150 nM.
On to `CCCCCNC(=O)c1cn(CC)c2cc(N3CCN(C)CC3)c(F)cc2c1=O`, for which the IC50 in test [1] is less than 150 nM.
Same read-out and setting: then `O=C(O)c1cn(-c2ccc(F)cc2)c2cc(Cl)c(F)cc2c1=O`, with less than 150 nM; and `O=C(Nc1nnc(-c2cccs2)o1)c1cccc(C(F)(F)F)c1`, with less than 150 nM.
Regarding `CCn1cc(C(=O)O)c(=O)c2cc(F)c(N3CCN(C(=S)Nc4ccc(Cl)cc4)CC3)cc21`, the inhibition in test [2] is 39.1% (inactive).
In the case of `O=S(=O)(Nc1c(S(=O)(=O)c2ccccc2)c2nc3ccccc3nc2n1C1CCCCC1)c1ccccc1`, in test [1], the 50% inhibitory concentration (IC50) is less than 150 nM.
For `Cc1ccc(NC(=S)NCc2ccc(Cl)cc2)cc1`, the inhibition in test [2] was 1.23% (inactive).
As for `CCOc1ccc(NC(=S)N2CCN(c3cc4c(cc3F)c(=O)c(C(=O)O)cn4CC)CC2)cc1`, in test [2], the inhibition was 15.7% (inactive).
As to `Fc1ccccc1NC(=S)NCc1ccc(Cl)cc1`, the inhibition in test [2] is 1.61% (inactive).
In the case of `CCn1cc(C(=O)O)c(=O)c2cc(F)c(N3CCN(C(=S)NCc4ccccc4)CC3)cc21`, the inhibition in test [2] is 13.2% (inactive).
Consider `CSc1nc2cc(Oc3cccc(Cl)c3Cl)c(Cl)cc2[nH]1`, for which, in test [1], the half-inhibitory concentration (IC50) is less than 150 nM.
For `CN(C)CCCN(C(=O)CCc1ccccc1)c1nc2ccc(Cl)cc2s1`, in test [1], the half-inhibitory concentration (IC50) was less than 150 nM.
For the compound `O=C1C2=C(Nc3ccccc3SC2c2ccc(C(F)(F)F)cc2)c2ccccc21` (stereo unspecified), the IC50 in test [1] is 107000 nM.
On to `N#C/C(=C\c1ccc[nH]1)C(=O)NC1CC1`, for which the IC50 in test [1] is less than 150 nM.
Take `COc1ccccc1Nc1nc(NCc2ccco2)c2ccccc2n1`: in test [1], the IC50 was less than 150 nM.
Consider `S=C(NCc1ccc(Cl)cc1)Nc1cccnc1`, for which, in test [2], the inhibition is -15.5% (inactive).
As for `CCn1cc(C(=O)O)c(=O)c2cc(F)c(N3CCN(C(=S)NC(=O)c4ccccc4Cl)CC3)cc21`, the IC50 in test [1] is less than 150 nM.
With `S=C(NCc1ccc(Cl)cc1)Nc1cccc(Cl)c1`, the inhibition in test [2] is 21.5% (inactive).
In the case of `O=c1c2ccccc2[nH]c2ccc(F)cc12`, the IC50 in test [1] was less than 150 nM.
For the compound `COc1cccc(NC(=S)NCc2ccc(Cl)cc2)c1`, the inhibition in test [2] was 2.87% (inactive).
For the compound `CN1CCc2nc(SCC(=O)Nc3cccc(F)c3)c(C#N)c(-c3cccs3)c2C1`, the IC50 in test [1] was less than 150 nM.
Consider `O=C1C2=C(Nc3ccccc3SC2c2ccc(I)cc2)c2ccccc21` (stereo unspecified), for which the inhibition in test [2] is 37.4% (inactive).
As for `S=C(NCc1ccccc1Cl)Nc1ccncc1`, in test [2], the inhibition was 6.49% (inactive).
As for `O=[N+]([O-])c1ccc(CNC2CCCc3ccccc32)cc1` (stereo unspecified), in test [1], the IC50 was less than 150 nM.
Consider `CN1CCN(C2=Cc3cc(Cl)ccc3Sc3cc(F)ccc32)CC1`, for which, in test [1], the half-maximal inhibitory concentration (IC50) is less than 150 nM.
With `C1=C(CCNc2ncnc3c2[nH]c2ccccc23)CCCC1`, the IC50 in test [1] is less than 150 nM.
With `S=C(NCc1ccc(Cl)cc1)Nc1ccncc1`, in test [1], the IC50 was less than 150 nM.
Regarding `CCCCn1c(NS(=O)(=O)c2ccccc2)c(S(=O)(=O)c2ccc(C)cc2)c2nc3ccccc3nc21`, the IC50 in test [1] is less than 150 nM.
For `CCn1cc(C(=O)O)c(=O)c2cc(F)c(N3CCN(C(=S)Nc4ccccc4Cl)CC3)cc21`, the inhibition in test [2] was 17.6% (inactive).
Take `O=C1C2=C(Nc3ccccc3SC2c2ccco2)c2ccccc21` (stereo unspecified): in test [1], the IC50 is less than 150 nM.
On to `COc1ccc(NC(=O)c2cc(Br)c(Br)s2)cn1`, for which the IC50 in test [1] was less than 150 nM.
Turning to `O=C(NCc1ccccc1)N1CCCN(Cc2ccccc2F)C1`, the inhibition in test [2] was -5% (inactive).
Take `O=C(Nc1ccccc1)N1CCCN(Cc2ccccc2F)C1`: the inhibition in test [2] was 14.4% (inactive).
For the compound `CCn1cc(C(=O)O)c(=O)c2cc(F)c(N3CCN(C(=S)NC(=O)c4ccccc4F)CC3)cc21`, the IC50 in test [1] is less than 150 nM.
On to `CCCCn1c(NS(=O)(=O)c2ccc(C)cc2)c(S(=O)(=O)c2ccccc2)c2nc3ccccc3nc21`, for which the IC50 in test [1] was less than 150 nM.
For the compound `O=C(Nc1cccnc1)c1cc(Br)c(Br)s1`, the IC50 in test [1] was less than 150 nM.
With `CCn1cc(C(=O)O)c(=O)c2cc(F)c(N3CCN(C(=S)Nc4ccccc4C)CC3)cc21`, the inhibition in test [2] was 22% (inactive).
Regarding `O=C1C2=C(Nc3ccccc3SC2c2ccccc2Cl)c2ccccc21` (stereo unspecified), the inhibition in test [2] was 24.5% (inactive).
In the case of `O=C1C2=C(Nc3ccccc3SC2c2ccccc2C(F)(F)F)c2ccccc21` (stereo unspecified), in test [2], the inhibition is 7.85% (inactive).
Same read-out and setting: the same measure for `COc1ccc(NC(=S)NCc2ccc(Cl)cc2)cc1`: 8.1% (inactive).
For `Cc1ccc(CN2CCCN(C(=O)Nc3ccc(Cl)cc3)C2)cc1`, the IC50 in test [1] was 99800 nM.
`CCn1cc(C(=O)O)c(=O)c2cc(F)c(N3CCN(C(=S)Nc4ccccc4C(F)(F)F)CC3)cc21`: the IC50 in test [1] was 104000 nM.
